The values below come from ChEMBL document CHEMBL4507294, “Data for DCP probe MSD-CYP11B2” (2021).

The target of assay [1] is Estrogen receptor (Homo sapiens) (UniProt P03372). The conditions noted are these: Compound concentration 10.0 uM.
Assay [2] has as its target Muscarinic acetylcholine receptor M3 (Homo sapiens) (UniProt P20309). The conditions noted are these: Compound concentration 10.0 uM.
For assay [3], the target named is Histamine H1 receptor (Homo sapiens) (UniProt P35367). Particulars: Compound concentration 10.0 uM.
The species named for another assay is Homo sapiens. Put plainly: Glutamate, Metabotropic, mGlu5 Eurofins-Panlabs radioligand binding assay. Particulars: Compound concentration 10.0 uM.
In assay [4] the target is T1, Alpha-2B adrenergic receptor (Homo sapiens, UniProt P18089).
T1 sequence (P18089 whole entry): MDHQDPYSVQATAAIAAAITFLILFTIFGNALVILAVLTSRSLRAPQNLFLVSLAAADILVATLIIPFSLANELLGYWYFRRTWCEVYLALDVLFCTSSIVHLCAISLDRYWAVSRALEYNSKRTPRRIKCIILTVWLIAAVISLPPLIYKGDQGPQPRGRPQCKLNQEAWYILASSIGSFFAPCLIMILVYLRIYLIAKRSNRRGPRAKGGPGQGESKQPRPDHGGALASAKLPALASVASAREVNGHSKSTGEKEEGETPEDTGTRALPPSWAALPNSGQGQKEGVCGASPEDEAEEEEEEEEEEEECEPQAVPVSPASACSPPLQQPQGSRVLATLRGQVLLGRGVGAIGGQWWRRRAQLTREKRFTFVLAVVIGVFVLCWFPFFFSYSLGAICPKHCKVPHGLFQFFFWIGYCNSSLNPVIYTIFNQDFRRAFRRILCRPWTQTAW
Put plainly: Panlabs assay (ADRA2B). More on the design: compound concentration 10 uM.

Assay [5] addresses Phosphodiesterase 3 (Homo sapiens) (UniProt Q14432+Q13370). The assay is described as follows: Inhibition of Phosphodiesterase PDE3 at compound concentration of 10.0 uM in the Eurofins-Panlabs enzyme assay (Eurofins_assay_152000). It is filed as protein assay. Also noted: substrate with concentration 1.01 uM [3H] cAMP + cAMP, incubation time 20 min, incubation temperature 25 C. Particulars: Compound concentration 10.0 uM.

The target in assay [6] is GABA-A receptor; anion channel (Rattus norvegicus) (UniProt O09028+P15431+P18506+P18508+P19969+P20236+P23574+P23576+P28471+P28473+P30191+P62813+P63079+P63138+Q91ZM7+Q9ES14). Particulars: Compound concentration 10.0 uM.
Assay [7] deals with Alpha-1A adrenergic receptor (Homo sapiens) (UniProt P35348). The conditions noted are these: Compound concentration 10.0 uM.
Assay [8] deals with T2, Alpha-2B adrenergic receptor (Homo sapiens) (UniProt P18089).
T2 sequence (whole entry): T1 sequence (P18089 whole entry)

For assay [9], the target named is Histamine H3 receptor (Homo sapiens) (UniProt Q9Y5N1). Particulars: Compound concentration 10.0 uM.
For assay [10], the target named is Adenosine receptor A2a (Homo sapiens) (UniProt P29274). Particulars: Compound concentration 10.0 uM.
In assay [11] the target is Peroxisome proliferator-activated receptor gamma (Homo sapiens) (UniProt P37231). Put plainly: PPARgamma Eurofins-Panlabs radioligand binding assay. Particulars: Compound concentration 10.0 uM. More on the design: ligand concentration 5 nM, non-specific ligand with concentration 0.5 µM L-797773, incubation time 18 h, incubation temperature 15 °C.
Assay [12] deals with Alpha-2A adrenergic receptor (Homo sapiens, UniProt P08913). The assay is described as follows: GPCRScan assay: inhibition of Alpha2A. More on the design: radioligand conc. used [nm] 1.0 – 3.0, parental cells stable MDCK.
In assay [13] the target is T3, Beta-1 adrenergic receptor (Homo sapiens, UniProt P08588). Put plainly: Inhibition of Adrenergic beta1 at compound concentration of 10.0 uM in the Eurofins-Panlabs radioligand binding assay (Eurofins_assay_204010). Also noted: ligand concentration 0.03 nM, non-specific ligand with concentration 100 uM S(-)-Propranolol, incubation time 2 h, incubation temperature 25 C.
Target sequence in this assay (P08588 whole entry): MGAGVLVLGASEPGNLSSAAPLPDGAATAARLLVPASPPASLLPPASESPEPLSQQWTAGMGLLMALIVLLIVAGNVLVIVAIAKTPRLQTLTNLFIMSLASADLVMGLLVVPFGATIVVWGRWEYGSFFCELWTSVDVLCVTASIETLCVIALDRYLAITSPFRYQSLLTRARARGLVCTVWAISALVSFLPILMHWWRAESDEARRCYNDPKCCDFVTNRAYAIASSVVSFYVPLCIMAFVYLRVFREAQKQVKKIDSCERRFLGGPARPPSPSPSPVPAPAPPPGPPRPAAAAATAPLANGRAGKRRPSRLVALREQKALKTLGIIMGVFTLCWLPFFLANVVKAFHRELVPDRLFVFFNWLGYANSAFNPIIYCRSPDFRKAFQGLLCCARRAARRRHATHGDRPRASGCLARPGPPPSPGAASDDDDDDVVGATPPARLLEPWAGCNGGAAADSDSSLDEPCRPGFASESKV

Assay [14] addresses Alpha-2C adrenergic receptor (Homo sapiens, UniProt P18825). Put plainly: GPCRScan assay: inhibition of Alpha2C. Also noted: radioligand conc. used [nm] 0.5 – 1.0, parental cells stable MDCK.
The target of assay [15] is T1, Alpha-2B adrenergic receptor. Put plainly: Inhibition of Adrenergic alpha2B at compound concentration of 10.0 uM in the Eurofins-Panlabs radioligand binding assay (Eurofins_assay_203710). Also noted: ligand concentration 2.5 nM, non-specific ligand with concentration 10 uM Prazosin, incubation time 60 min, incubation temperature 25 C.
The target in assay [16] is T4, Muscarinic acetylcholine receptor M2 (Homo sapiens) (UniProt P08172).
T4 sequence (whole entry): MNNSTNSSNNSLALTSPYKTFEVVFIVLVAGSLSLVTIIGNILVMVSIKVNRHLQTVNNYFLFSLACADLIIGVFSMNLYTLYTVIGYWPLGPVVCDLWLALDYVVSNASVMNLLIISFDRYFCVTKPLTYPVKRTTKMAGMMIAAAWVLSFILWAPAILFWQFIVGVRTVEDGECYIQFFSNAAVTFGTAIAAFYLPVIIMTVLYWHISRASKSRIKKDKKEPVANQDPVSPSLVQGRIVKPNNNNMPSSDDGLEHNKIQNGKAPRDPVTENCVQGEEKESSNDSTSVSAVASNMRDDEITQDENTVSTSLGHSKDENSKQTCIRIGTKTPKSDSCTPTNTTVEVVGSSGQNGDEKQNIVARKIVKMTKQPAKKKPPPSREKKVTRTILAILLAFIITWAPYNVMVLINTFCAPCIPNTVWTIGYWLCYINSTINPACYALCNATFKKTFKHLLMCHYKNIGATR
The conditions noted are these: Compound concentration 10.0 uM.

For assay [17], the target named is T3, Beta-1 adrenergic receptor.
Target sequence in this assay (P08588 whole entry, looked up): as the sequence (P08588 whole entry) above
Assay [18] deals with Cytochrome P450 11B1, mitochondrial (Homo sapiens, UniProt P15538). The assay is described as follows: Assay using V79 cell lines (CYP11B1). It is filed as cell-based.
The target in assay [19] is Sodium-dependent serotonin transporter (Homo sapiens) (UniProt P31645). Particulars: Compound concentration 10.0 uM.
The target in assay [20] is 5-hydroxytryptamine receptor 6 (Homo sapiens, UniProt P50406). Put plainly: GPCRScan assay: inhibition of 5-HT6. Also noted: radioligand conc. used [nm] 2.0 – 4.0, parental cells stable HEK.
Assay [21] addresses Delta-type opioid receptor (Homo sapiens) (UniProt P41143). The conditions noted are these: Compound concentration 10.0 uM.
In assay [22] the target is Histamine H4 receptor (Homo sapiens) (UniProt Q9H3N8). Particulars: Compound concentration 10.0 uM.

Active and inactive are the calls of the source. The calls are words filed in the database; no cut-off is given here.

Chain of Histamine H4 receptor (Homo sapiens) (Q9H3N8 whole entry): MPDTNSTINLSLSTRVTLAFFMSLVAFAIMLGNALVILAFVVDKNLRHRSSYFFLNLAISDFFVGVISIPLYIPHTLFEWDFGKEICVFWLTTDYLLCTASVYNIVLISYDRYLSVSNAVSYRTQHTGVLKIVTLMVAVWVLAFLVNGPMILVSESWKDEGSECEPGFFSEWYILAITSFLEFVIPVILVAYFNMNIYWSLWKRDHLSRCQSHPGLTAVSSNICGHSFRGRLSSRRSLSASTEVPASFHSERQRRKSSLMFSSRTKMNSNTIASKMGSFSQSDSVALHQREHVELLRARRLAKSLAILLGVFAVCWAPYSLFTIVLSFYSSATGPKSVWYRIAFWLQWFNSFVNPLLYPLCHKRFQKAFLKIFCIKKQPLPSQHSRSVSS
Chain of Adenosine receptor A2a (Homo sapiens) (P29274 whole entry): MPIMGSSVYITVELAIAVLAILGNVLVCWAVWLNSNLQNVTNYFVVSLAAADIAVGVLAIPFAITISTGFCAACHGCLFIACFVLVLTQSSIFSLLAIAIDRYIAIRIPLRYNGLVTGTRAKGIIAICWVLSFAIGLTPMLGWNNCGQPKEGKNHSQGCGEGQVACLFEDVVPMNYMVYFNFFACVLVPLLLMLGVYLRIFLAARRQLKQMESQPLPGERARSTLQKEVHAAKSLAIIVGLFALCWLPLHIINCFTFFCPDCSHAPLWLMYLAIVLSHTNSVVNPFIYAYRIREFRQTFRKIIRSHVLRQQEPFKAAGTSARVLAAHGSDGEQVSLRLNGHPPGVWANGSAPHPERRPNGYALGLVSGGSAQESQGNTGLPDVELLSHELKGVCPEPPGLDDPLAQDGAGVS
Chain of Alpha-2C adrenergic receptor (P18825 whole entry): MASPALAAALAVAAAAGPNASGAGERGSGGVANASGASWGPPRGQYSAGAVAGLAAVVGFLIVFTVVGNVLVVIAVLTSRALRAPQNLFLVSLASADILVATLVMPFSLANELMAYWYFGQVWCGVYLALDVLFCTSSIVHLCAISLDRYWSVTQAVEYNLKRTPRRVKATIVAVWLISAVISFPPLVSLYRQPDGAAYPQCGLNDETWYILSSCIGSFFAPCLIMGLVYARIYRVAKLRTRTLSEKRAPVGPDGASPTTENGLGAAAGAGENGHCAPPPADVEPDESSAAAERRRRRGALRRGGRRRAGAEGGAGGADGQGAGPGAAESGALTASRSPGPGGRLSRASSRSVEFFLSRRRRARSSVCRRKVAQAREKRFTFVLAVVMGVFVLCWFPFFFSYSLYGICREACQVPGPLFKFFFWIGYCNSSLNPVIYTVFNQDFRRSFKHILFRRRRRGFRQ
Chain of Histamine H3 receptor (Homo sapiens) (Q9Y5N1 whole entry): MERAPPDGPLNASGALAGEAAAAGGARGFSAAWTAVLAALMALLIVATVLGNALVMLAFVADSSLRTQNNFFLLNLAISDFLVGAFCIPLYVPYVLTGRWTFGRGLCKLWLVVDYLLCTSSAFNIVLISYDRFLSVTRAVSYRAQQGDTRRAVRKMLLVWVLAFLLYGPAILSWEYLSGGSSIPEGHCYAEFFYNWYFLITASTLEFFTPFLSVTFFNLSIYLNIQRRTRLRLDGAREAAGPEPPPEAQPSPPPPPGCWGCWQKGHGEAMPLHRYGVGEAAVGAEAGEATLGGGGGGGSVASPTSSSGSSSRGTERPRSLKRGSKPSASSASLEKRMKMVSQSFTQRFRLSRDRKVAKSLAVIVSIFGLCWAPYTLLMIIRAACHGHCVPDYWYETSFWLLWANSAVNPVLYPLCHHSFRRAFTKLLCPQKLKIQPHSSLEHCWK
Chain of Muscarinic acetylcholine receptor M3 (Homo sapiens) (P20309 whole entry, looked up): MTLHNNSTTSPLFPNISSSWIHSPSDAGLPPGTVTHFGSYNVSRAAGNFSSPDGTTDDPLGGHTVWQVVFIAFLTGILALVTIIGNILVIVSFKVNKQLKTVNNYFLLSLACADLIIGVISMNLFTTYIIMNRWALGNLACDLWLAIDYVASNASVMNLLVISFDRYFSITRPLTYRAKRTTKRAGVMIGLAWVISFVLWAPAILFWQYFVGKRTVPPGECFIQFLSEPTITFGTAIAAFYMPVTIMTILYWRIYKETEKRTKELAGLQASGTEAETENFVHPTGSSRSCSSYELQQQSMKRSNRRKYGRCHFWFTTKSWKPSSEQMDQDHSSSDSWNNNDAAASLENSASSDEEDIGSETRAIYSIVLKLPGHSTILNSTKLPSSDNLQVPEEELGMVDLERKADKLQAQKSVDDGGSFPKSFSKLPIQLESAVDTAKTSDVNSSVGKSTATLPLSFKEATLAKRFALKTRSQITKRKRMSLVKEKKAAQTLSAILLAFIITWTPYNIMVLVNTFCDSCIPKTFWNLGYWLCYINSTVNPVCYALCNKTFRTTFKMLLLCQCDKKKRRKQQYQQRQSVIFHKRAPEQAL
Chain of Sodium-dependent serotonin transporter (Homo sapiens) (P31645 whole entry, looked up): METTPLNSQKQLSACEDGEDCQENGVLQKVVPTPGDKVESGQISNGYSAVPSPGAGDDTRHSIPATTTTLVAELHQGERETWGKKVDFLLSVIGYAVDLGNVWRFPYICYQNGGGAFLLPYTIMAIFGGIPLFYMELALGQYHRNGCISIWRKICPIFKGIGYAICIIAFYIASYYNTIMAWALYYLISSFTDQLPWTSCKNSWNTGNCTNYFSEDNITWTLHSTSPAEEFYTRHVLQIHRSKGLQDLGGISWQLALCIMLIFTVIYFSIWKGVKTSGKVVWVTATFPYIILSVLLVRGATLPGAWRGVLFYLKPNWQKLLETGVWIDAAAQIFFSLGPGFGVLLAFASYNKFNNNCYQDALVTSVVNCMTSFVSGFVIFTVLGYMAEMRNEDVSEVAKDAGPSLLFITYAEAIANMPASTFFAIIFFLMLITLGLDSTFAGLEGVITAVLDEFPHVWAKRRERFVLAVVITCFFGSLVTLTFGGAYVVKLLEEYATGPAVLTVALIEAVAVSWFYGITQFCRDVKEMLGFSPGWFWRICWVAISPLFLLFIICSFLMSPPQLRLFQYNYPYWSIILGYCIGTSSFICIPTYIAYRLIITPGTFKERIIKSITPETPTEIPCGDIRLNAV
Chain of Delta-type opioid receptor (Homo sapiens) (P41143 whole entry): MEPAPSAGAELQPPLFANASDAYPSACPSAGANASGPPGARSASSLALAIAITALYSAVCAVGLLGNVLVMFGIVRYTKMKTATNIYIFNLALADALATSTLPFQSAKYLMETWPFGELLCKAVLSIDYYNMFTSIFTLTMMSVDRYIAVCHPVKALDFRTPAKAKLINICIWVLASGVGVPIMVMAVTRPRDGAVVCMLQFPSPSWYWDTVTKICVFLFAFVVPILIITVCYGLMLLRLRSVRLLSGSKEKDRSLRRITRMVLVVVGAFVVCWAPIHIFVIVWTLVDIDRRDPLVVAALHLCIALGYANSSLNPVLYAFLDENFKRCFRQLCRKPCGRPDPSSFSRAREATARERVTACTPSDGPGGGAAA
Chain of Alpha-2A adrenergic receptor (P08913 whole entry): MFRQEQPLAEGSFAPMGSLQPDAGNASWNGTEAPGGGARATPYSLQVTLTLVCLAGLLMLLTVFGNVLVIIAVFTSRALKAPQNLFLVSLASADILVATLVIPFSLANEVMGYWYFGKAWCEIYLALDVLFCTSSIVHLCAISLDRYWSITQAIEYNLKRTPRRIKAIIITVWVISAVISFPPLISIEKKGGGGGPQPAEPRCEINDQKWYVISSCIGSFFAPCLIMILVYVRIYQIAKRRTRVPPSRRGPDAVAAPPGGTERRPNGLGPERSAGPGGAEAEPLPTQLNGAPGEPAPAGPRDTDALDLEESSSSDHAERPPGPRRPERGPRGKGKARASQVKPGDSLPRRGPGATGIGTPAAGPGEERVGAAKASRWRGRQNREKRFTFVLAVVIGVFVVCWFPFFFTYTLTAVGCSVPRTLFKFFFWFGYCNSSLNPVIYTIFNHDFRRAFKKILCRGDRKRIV
Chain of Cytochrome P450 11B1, mitochondrial (P15538 whole entry): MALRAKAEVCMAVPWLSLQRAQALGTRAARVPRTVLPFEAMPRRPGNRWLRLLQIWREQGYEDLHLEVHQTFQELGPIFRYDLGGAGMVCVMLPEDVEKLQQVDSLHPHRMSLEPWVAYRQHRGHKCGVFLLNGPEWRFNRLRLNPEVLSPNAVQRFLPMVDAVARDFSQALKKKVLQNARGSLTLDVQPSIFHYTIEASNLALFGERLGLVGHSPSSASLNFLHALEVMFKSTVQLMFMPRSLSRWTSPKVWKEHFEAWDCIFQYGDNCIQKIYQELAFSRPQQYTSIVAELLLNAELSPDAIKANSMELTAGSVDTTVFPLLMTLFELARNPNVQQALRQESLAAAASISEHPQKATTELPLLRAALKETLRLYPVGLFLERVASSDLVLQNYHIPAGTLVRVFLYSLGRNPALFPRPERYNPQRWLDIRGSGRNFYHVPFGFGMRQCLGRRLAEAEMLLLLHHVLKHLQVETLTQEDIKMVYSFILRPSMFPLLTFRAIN

`CC(C)(O)c1cncc(-c2nc3ccc(F)cc3n2C2CC2)c1` [MSD-CYP11B2]: the inhibition (as a rule, the change of the read-out against control, counted positive when it falls) in assay [1] was 1%; in assay [2], 2%; in assay [3] it was 23%; in the assay listed under Homo sapiens, 25%; in assay [5], 10%; in assay [6] it was 6.26%. Further, the inhibition was -3.03% in assay [7]; 9% in assay [8] (Compound concentration 0.1 uM); 20% in assay [8] (Compound concentration 1.0 uM); 65% in assay [8] (Compound concentration 10.0 uM); -4.55% in assay [9]; -5% in [10]. Further, the inhibition in assay [11] is 8%; in assay [16], 6%; in assay [17] (Compound concentration 0.01 uM), 5%; in [17] (Compound concentration 0.1 uM), -1%; in assay [17] (Compound concentration 1.0 uM), 9%; in assay [17] (Compound concentration 10.0 uM), 51%. Moreover, the IC50 (usually the concentration needed to halve the response being measured) in assay [4] is 4.7 µM (active); in assay [13], 9.62 µM; in [15] it was 4.7 µM. The Ki (commonly a dissociation constant, usually derived from enzyme kinetics or from competition with a known ligand) in assay [12] turned out to be 2.61 µM; in [13] it was 5.55 µM; in [14], 0.626 µM; in assay [15], 2.15 µM.

Take `FC(F)(F)c1ccc2c(c1)nc(-c1cccnc1)n2C1CC1` [MSD-CYP11B2-Negative-control]: the IC50 in assay [18] is given as > 10 µM (not active). The values for the inhibition in [19], in [21] and in assay [22] were -5.44%, -9.33% and -9.43%, respectively. In addition, the Ki in assay [20] was 3.06 µM.
